# Experimental data as given in patent US9796686B2, “Antibacterial quinazoline-4(3H)-one derivatives” (priority 2014, dated 2017).
# Key:
# Test in all cases: Bacterial growth minimal inhibitory concentration, microdilution in cation-adjusted Mueller-Hinton Broth (CLSI M7-A7)
# Type in all cases: cell-based
# K. pneumoniae A-651 = settings: multiply-resistant strain (in particular quinolone-resistant); for MIC: Klebsiella pneumoniae, A651, read-out: MIC for K. Pneumoniae A-651
# Procedure: (§1) Minimal Inhibitory Concentrations (MICs; mg/L) were determined in cation-adjusted Mueller-Hinton Broth by a microdilution method following the description given in “Methods for Dilution Antimicrobial Susceptibility Tests for Bacteria that Grow Aerobically”, Approved standard, 7th ed., Clinical and Laboratory Standards Institute (CLSI) Document M7-A7, Wayne, Pa., U.S.A. (2006).
# (§2) All Example compounds were tested against several Gram-positive and Gram-negative bacteria. […] K. pneumoniae A-651 is a multiply-resistant strain (in particular quinolone-resistant), while E. coli ATCC25922 and P. aeruginosa ATCC27853 are quinolone-sensitive strains.
# P. aeruginosa ATCC27853 = settings: quinolone-sensitive strain; for MIC: Pseudomonas aeruginosa, ATCC27853, read-out: MIC for P. aeruginosa ATCC27853
# Procedure: as §1, §2
# E. coli ATCC25922 = settings: quinolone-sensitive strain; for MIC: Escherichia coli, ATCC25922, read-out: MIC for E. coli ATCC25922
# Procedure: as §1, §2
SMILES,MIC (K. pneumoniae A-651),MIC (P. aeruginosa ATCC27853),MIC (E. coli ATCC25922),MIC for K. Pneumoniae A-651 (K. pneumoniae A-651),MIC for P. aeruginosa ATCC27853 (P. aeruginosa ATCC27853),MIC for E. coli ATCC25922 (E. coli ATCC25922)
"C[C@@](CCn1cnc2cc(C#CC#C[C@@H](O)CO)ccc2c1=O)(C(=O)NO)S(C)(=O)=O [Example 10, (R)-4-(7-((R)-5,6-dihydroxyhexa-1,3-diyn-1-yl)-4-oxoquinazolin-3(4H)-yl)-N-hydroxy-2-methyl-2-(methylsulfonyl)butanamide]",8 µg/mL,4 µg/mL,8 µg/mL,,,
"C[C@@](CCn1cnc2cc(C#CC#C[C@@H]3C[C@H]3CO)c(F)cc2c1=O)(C(=O)NO)S(C)(=O)=O [Example 11, (R)-4-(6-fluoro-7-(((1R,2R)-2-(hydroxymethyl)cyclopropyl)buta-1,3-diyn-1-yl)-4-oxoquinazolin-3(4H)-yl)-N-hydroxy-2-methyl-2-(methylsulfonyl)butanamide]",0.25 µg/mL,1 µg/mL,≤ 0.063 µg/mL,,,
"C[C@@](CCn1cnc2cc(C#CC#CC3(CO)CC3)c(F)cc2c1=O)(C(=O)NO)S(C)(=O)=O [Example 12, (R)-4-(6-fluoro-7-((1-(hydroxymethyl)cyclopropyl)buta-1,3-diyn-1-yl)-4-oxoquinazolin-3(4H)-yl)-N-hydroxy-2-methyl-2-(methylsulfonyl)butanamide]",0.5 µg/mL,2 µg/mL,0.25 µg/mL,,,
"C[C@@](CCn1cnc2cc(C#CC#CC34CC(CO)(C3)C4)ccc2c1=O)(C(=O)NO)S(C)(=O)=O [Example 13, (R)-N-hydroxy-4-(7-((3-(hydroxymethyl)bicyclo[1.1.1]pentan-1-yl)buta-1,3-diyn-1-yl)-4-oxoquinazolin-3(4H)-yl)-2-methyl-2-(methylsulfonyl)butanamide]",0.25 µg/mL,0.5 µg/mL,0.125 µg/mL,,,
"C[C@@](CCn1cnc2cc(C#Cc3ccc(OCCO)cc3)ccc2c1=O)(C(=O)NO)S(C)(=O)=O [Example 14, (R)-N-hydroxy-4-(7-((4-(2-hydroxyethoxy)phenyl)ethynyl)-4-oxoquinazolin-3(4H)-yl)-2-methyl-2-(methylsulfonyl)butanamide]",0.5 µg/mL,16 µg/mL,0.25 µg/mL,,,
"C[C@@](CCn1cnc2cc(C#CC#C[C@@H]3C[C@@H](O)[C@@H](O)C3)ccc2c1=O)(C(=O)NO)S(C)(=O)=O [Example 15, (R)-4-(7-(((1s,3R,4S)-3,4-dihydroxycyclopentyl)buta-1,3-diyn-1-yl)-4-oxoquinazolin-3(4H)-yl)-N-hydroxy-2-methyl-2-(methylsulfonyl)butanamide]",,,,1 µg/mL,2 µg/mL,1 µg/mL
"C[C@@](CCn1cnc2cc(C#Cc3ccc(C4(CO)CC4)cc3)ccc2c1=O)(C(=O)NO)S(C)(=O)=O [Example 16, (R)-N-hydroxy-4-(7-((4-(1-(hydroxymethyl)cyclopropyl)phenyl)ethynyl)-4-oxoquinazolin-3(4H)-yl)-2-methyl-2-(methylsulfonyl)butanamide]",0.25 µg/mL,4 µg/mL,0.125 µg/mL,,,
"C[C@@]1(CO)C[C@H]1C#CC#Cc1ccc2c(=O)n(CC[C@](C)(C(=O)NO)S(C)(=O)=O)cnc2c1 [Example 17, (R)-N-hydroxy-4-(7-(((1S,2R)-2-(hydroxymethyl)-2-methylcyclopropyl)buta-1,3-diyn-1-yl)-4-oxoquinazolin-3(4H)-yl)-2-methyl-2-(methylsulfonyl)butanamide]",0.125 µg/mL,0.5 µg/mL,≤ 0.063 µg/mL,,,
"C[C@@](CCn1cnc2cc(C#Cc3ccc([C@@H](O)CO)cc3)ccc2c1=O)(C(=O)NO)S(C)(=O)=O [Example 18, (R)-4-(7-((4((R)-1,2-dihydroxyethyl)phenyl)ethynyl)-4-oxoquinazolin-3(4H)-yl)-N-hydroxy-2-methyl-2-(methylsulfonyl)butanamide]",2 µg/mL,4 µg/mL,0.5 µg/mL,,,
"C[C@@]1(C#CC#Cc2ccc3c(=O)n(CC[C@](C)(C(=O)NO)S(C)(=O)=O)cnc3c2)C[C@H]1CO [Example 20, (R)-N-hydroxy-4-(7-(((1R,2R)-2-(hydroxymethyl)-1-methylcyclopropyl)buta-1,3-diyn-1-yl)-4-oxoquinazolin-3(4H)-yl)-2-methyl-2-(methylsulfonyl)butanamide]",0.5 µg/mL,1 µg/mL,0.125 µg/mL,,,
"C[C@@](CCn1cnc2c(F)c(C#CC#C[C@@H]3C[C@H]3CO)ccc2c1=O)(C(=O)NO)S(C)(=O)=O [Example 21, (R)-4-(8-fluoro-7-(((1R,2R)-2-(hydroxymethyl)cyclopropyl)buta-1,3-diyn-1-yl)-4-oxoquinazolin-3(4H)-yl)-N-hydroxy-2-methyl-2-(methylsulfonyl)butanamide]",0.5 µg/mL,4 µg/mL,0.25 µg/mL,,,
CN(C)CC(=O)OCC1(c2ccc(C#Cc3ccc4c(=O)n(CC[C@](C)(C(=O)NO)S(C)(=O)=O)cnc4c3)cc2)CC1.Cl [Example 22],,,,4 µg/mL,16 µg/mL,0.5 µg/mL
"C[C@@](CCn1cnc2c(F)c(C#CC#C[C@H]3C[C@@H]3CO)ccc2c1=O)(C(=O)NO)S(C)(=O)=O [Example 23, (R)-4-(8-fluoro-7-(((1S,2S)-2-(hydroxymethyl)cyclopropyl)buta-1,3-diyn-1-yl)-4-oxoquinazolin-3(4H)-yl)-N-hydroxy-2-methyl-2-(methylsulfonyl)butanamide]",0.5 µg/mL,4 µg/mL,0.5 µg/mL,,,
"C[C@]1(CO)C[C@@H]1C#CC#Cc1ccc2c(=O)n(CC[C@](C)(C(=O)NO)S(C)(=O)=O)cnc2c1 [Example 24, (R)-N-hydroxy-4-(7-(((1R,2S)-2-(hydroxymethyl)-2-methylcyclopropyl)buta-1,3-diyn-1-yl)-4-oxoquinazolin-3(4H)-yl)-2-methyl-2-(methylsulfonyl)butanamide]",0.25 µg/mL,1 µg/mL,0.25 µg/mL,,,
"C[C@@](CCn1cnc2cc(C#CC#CC3(N)CC3)ccc2c1=O)(C(=O)NO)S(C)(=O)=O.O=CO [Example 25, (R)-4-(7-((1-aminocyclopropyl)buta-1,3-diyn-1-yl)-4-oxoquinazolin-3(4H)-yl)-N-hydroxy-2-methyl-2-(methylsulfonyl)butanamide formate]",0.5 µg/mL,1 µg/mL,0.25 µg/mL,,,
"C[C@@](CCn1cnc2cc(C#CC#C[C@@H]3C[C@H]3[C@H](O)CO)ccc2c1=O)(C(=O)NO)S(C)(=O)=O [Example 26, (R)-4-(7-(((1R,2R)-2-((S)-1,2-dihydroxyethyl)cyclopropyl)buta-1,3-diyn-1-yl)-4-oxoquinazolin-3(4H)-yl)-N-hydroxy-2-methyl-2-(methylsulfonyl)butanamide]",1 µg/mL,1 µg/mL,1 µg/mL,,,
"C[C@@](CCn1cnc2cc(C#CC#CC3CCC(NC(=O)CN)C3)c(F)cc2c1=O)(C(=O)NO)S(C)(=O)=O.Cl (stereo partly drawn) [Example 27, (R)-4-(7-((3-(2-aminoacetamido)cyclopentyl)buta-1,3-diyn-1-yl)-6-fluoro-4-oxoquinazolin-3(4H)-yl)-N-hydroxy-2-methyl-2-(methylsulfonyl)butanamide hydrochloride]",4 µg/mL,8 µg/mL,1 µg/mL,,,
"C[C@@](CCn1cnc2cc(C#CC#C[C@@H]3C[C@H]3CN)c(F)cc2c1=O)(C(=O)NO)S(C)(=O)=O.Cl [Example 28, (R)-4-(7-(((1R,2R)-2-(aminomethyl)cyclopropyl)buta-1,3-diyn-1-yl)-6-fluoro-4-oxoquinazolin-3(4H)-yl)-N-hydroxy-2-methyl-2-(methylsulfonyl)butanamide hydrochloride]",8 µg/mL,8 µg/mL,8 µg/mL,,,
